Target: recombinant full-length human hydroxyacid oxidase 1 (HAO1), the equivalent of hGOX (Homo sapiens (Human), UniProt Q9UJM8)
Assay: In-vitro human glycolate oxidase (hGOX) assay (Amplex red/HRP fluorescence)
Type: biochemical
Conditions: 12.5 nM HAO1, 85 μM glycolate, 2.5% DMSO; read-out: IC50
Procedure: Biological Activity Assay: In-Vitro Human Glycolate Oxidase (hGOX) Assay
The in-vitro glycolate oxidase assay was performed using recombinant full-length human hydroxyacid oxidase 1 (HAO1), the equivalent of hGOX. […] Purified HAO1 was dissolved in assay buffer consisting of 10 mM NaCl, 110 mM KCl, 2 mM MgCl2, 50 mM HEPES (pH 7.4) and 0.01% Triton™ X-100.

recombinant full-length human hydroxyacid oxidase 1 (HAO1), the equivalent of hGOX, sequence (Q9UJM8 whole entry): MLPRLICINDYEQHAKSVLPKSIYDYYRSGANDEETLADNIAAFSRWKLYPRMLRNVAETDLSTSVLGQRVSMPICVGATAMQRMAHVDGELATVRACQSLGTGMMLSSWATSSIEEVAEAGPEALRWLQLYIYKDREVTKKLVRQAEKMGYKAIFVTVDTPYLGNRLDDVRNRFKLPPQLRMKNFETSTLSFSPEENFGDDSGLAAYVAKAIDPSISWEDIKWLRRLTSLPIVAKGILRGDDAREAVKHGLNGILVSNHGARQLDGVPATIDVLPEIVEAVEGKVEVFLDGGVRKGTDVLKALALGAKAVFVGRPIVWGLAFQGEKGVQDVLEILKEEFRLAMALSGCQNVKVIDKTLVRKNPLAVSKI

Row | Compound | IC50 [nM]
1 | O=C(O)c1nn[nH]c1Oc1ccc(-c2ccc(OC(F)(F)F)c(F)c2)cc1 [Example I-310, 5-((3′-Fluoro-4′-(trifluoromethoxy)-[1,1′-biphenyl]-4-yl)oxy)-1H-1,2,3-triazole-4-carboxylic acid] | 5
2 | CCc1ccc(Oc2[nH]nnc2C(=O)O)cc1 [Example I-298, 5-(4-Ethylphenoxy)-1H-1,2,3-triazole-4-carboxylic acid] | 34
3 | CCOC(=O)c1nn[nH]c1Sc1ccccc1Cl [Example I-012, Ethyl 5-((2-chlorophenyl)thio)-1H-1,2,3-triazole-4-carboxylate] | 251000
4 | CCOC(=O)c1nn[nH]c1Sc1ccc(Br)cc1 [Example I-008, Ethyl 5-((4-bromophenyl)thio)-1H-1,2,3-triazole-4-carboxylate] | > 500000
5 | COc1ccccc1Sc1[nH]nnc1C(=O)O [Example I-006, 5-((2-Methoxyphenyl)thio)-1H-1,2,3-triazole-4-carboxylic acid] | 2310
6 | O=C(O)c1nn[nH]c1Oc1ccc(-c2cc(Cl)cc(Cl)c2)cc1 [Example I-300, 5-((3′,5′-Dichloro-[1,1′-biphenyl]-4-yl)oxy)-1H-1,2,3-triazole-4-carboxylic acid] | 33
7 | Cc1ccc(Sc2[nH]nnc2C(=O)O)c(C)c1 [Example I-009, 5-((2,4-Dimethylphenyl)thio)-1H-1,2,3-triazole-4-carboxylic acid] | 230
8 | Cc1cc(Oc2[nH]nnc2C(=O)O)ccc1F [Example I-306, 5-(4-Fluoro-3-methylphenoxy)-1H-1,2,3-triazole-4-carboxylic acid] | 61
9 | O=C(O)c1nn[nH]c1Oc1cccc(-c2ccc(OC(F)(F)F)c(F)c2)c1 [Example I-311, 5-((3′-Fluoro-4′-(trifluoromethoxy)-[1,1′-biphenyl]-3-yl)oxy)-1H-1,2,3-triazole-4-carboxylic acid] | 27
10 | CCc1cccc(Oc2[nH]nnc2C(=O)O)c1 [Example I-295, 5-(3-Ethylphenoxy)-1H-1,2,3-triazole-4-carboxylic acid] | 79
11 | COc1cc(OC)cc(-c2ccc(Oc3[nH]nnc3C(=O)O)cc2)c1 [Example I-301, 5-((3′,5′-Dimethoxy-[1,1′-biphenyl]-4-yl)oxy)-1H-1,2,3-triazole-4-carboxylic acid] | 1080
12 | O=C(O)c1nn[nH]c1OCc1ccc(Br)cc1 [Example I-085, 5-((4-Bromobenzyl)oxy)-1H-1,2,3-triazole-4-carboxylic acid] | > 10000
13 | O=C(O)c1[nH]nnc1Oc1ccc(F)c(F)c1 [Example I-307, 5-(3,4-Difluorophenoxy)-1H-1,2,3-triazole-4-carboxylic acid] | 88
14 | O=C(O)c1nn[nH]c1Oc1cccc(N2CCCC2)c1 [Example I-283, 5-(3-(Pyrrolidin-1-yl)phenoxy)-1H-1,2,3-triazole-4-carboxylic acid] | 172
15 | O=C(O)c1nn[nH]c1Sc1ccccc1F [Example I-013, 5-((2-Fluorophenyl)thio)-1H-1,2,3-triazole-4-carboxylic acid] | 200
16 | O=C(O)c1nn[nH]c1Oc1cccc(N2CCCCC2)c1 [Example I-281, 5-(3-(Piperidin-1-yl)phenoxy)-1H-1,2,3-triazole-4-carboxylic acid] | 370
17 | CC(C)c1cccc(Oc2[nH]nnc2C(=O)O)c1 [Example I-278, 5-(3-Isopropylphenoxy)-1H-1,2,3-triazole-4-carboxylic acid] | 230
18 | Cc1ccc(Oc2[nH]nnc2C(=O)O)cc1C [Example I-039, 5-(3,4-Dimethylphenoxy)-1H-1,2,3-triazole-4-carboxylic acid] | 56
19 | COc1cc(OC)cc(-c2cccc(Oc3[nH]nnc3C(=O)O)c2)c1 [Example I-303, 5-((3′,5′-Dimethoxy-[1,1′-biphenyl]-3-yl)oxy)-1H-1,2,3-triazole-4-carboxylic acid] | 169
20 | CCOC(=O)c1nn[nH]c1Sc1ccccc1F [Example I-014, Ethyl 5-((2-fluorophenyl)thio)-1H-1,2,3-triazole-4-carboxylate] | 430000
21 | C=Cc1cccc(Oc2[nH]nnc2C(=O)O)c1 [Example I-284, 5-(3-Vinylphenoxy)-1H-1,2,3-triazole-4-carboxylic acid] | 89
22 | CCOC(=O)c1nn[nH]c1Nc1ccc(OC)cc1 [Example I-289, Ethyl 5-((4-methoxyphenyl)amino)-1H-1,2,3-triazole-4-carboxylate] | > 500000
23 | Cc1ccc(Nc2[nH]nnc2C(=O)O)cc1 [Example I-292, 5-(p-Tolylamino)-1H-1,2,3-triazole-4-carboxylic acid] | 3760

Row | Compound | IC50 [nM]
24 | O=C(O)c1nn[nH]c1Oc1ccccc1 [Example I-057, 5-Phenoxy-1H-1,2,3-triazole-4-carboxylic acid] | 360
25 | O=C(O)c1nn[nH]c1Oc1cccc(N2CCCCCC2)c1 [Example I-280, 5-(3-(Azepan-1-yl)phenoxy)-1H-1,2,3-triazole-4-carboxylic acid] | 222
26 | O=C(O)c1nn[nH]c1Sc1cccc(F)c1 [Example I-015, 5-((3-Fluorophenyl)thio)-1H-1,2,3-triazole-4-carboxylic acid] | 130
27 | COc1ccc(Sc2[nH]nnc2C(=O)O)cc1 [Example I-004, 5-((4-Methoxyphenyl)thio)-1H-1,2,3-triazole-4-carboxylic acid] | 140
28 | COc1ccc(Oc2[nH]nnc2C(=O)O)cc1 [Example I-035, 5-(4-Methoxyphenoxy)-1H-1,2,3-triazole-4-carboxylic acid] | 260
29 | O=C(O)c1nn[nH]c1Oc1cccc(-c2ccc3c(c2)OCO3)c1 [Example I-305, 5-(3-(Benzo[d][1,3]dioxol-5-yl)phenoxy)-1H-1,2,3-triazole-4-carboxylic acid] | 2
30 | O=C(O)c1nn[nH]c1Sc1nc2ccccc2s1 [Example I-032, 5-(Benzo[d]thiazol-2-ylthio)-1H-1,2,3-triazole-4-carboxylic acid] | 4860
31 | O=C(O)c1nn[nH]c1Oc1ccc(Cl)c(F)c1 [Example I-308, 5-(4-Chloro-3-fluorophenoxy)-1H-1,2,3-triazole-4-carboxylic acid] | 34
32 | O=C(O)c1[nH]nnc1Sc1ccc(Cl)c(Cl)c1 [Example I-025, 5-((3,4-Dichlorophenyl)thio)-1H-1,2,3-triazole-4-carboxylic acid] | 43
33 | COc1ccc(Nc2[nH]nnc2C(=O)O)cc1 [Example I-290, 5-((4-Methoxyphenyl)amino)-1H-1,2,3-triazole-4-carboxylic acid] | 6530
34 | CCOC(=O)c1nn[nH]c1Sc1ccc(OC)cc1 [Example I-005, Ethyl 5-((4-Methoxyphenyl)thio)-1H-1,2,3-triazole-4-carboxylate] | > 500000
35 | CCOC(=O)c1nn[nH]c1Nc1ccc(C)cc1 [Example I-291, ethyl 5-(p-tolylamino)-1H-1,2,3-triazole-4-carboxylate] | > 500000
36 | O=C(O)c1nn[nH]c1Sc1ccc(Br)cc1 [Example I-007, 5-((4-Bromophenyl)thio)-1H-1,2,3-triazole-4-carboxylic acid] | 70
37 | CC(C)Cc1cccc(Oc2[nH]nnc2C(=O)O)c1 [Example I-296, 5-(3-Isobutylphenoxy)-1H-1,2,3-triazole-4-carboxylic acid] | 76
38 | CC(C)c1ccc(Oc2[nH]nnc2C(=O)O)cc1 [Example I-274, 5-(4-Isopropylphenoxy)-1H-1,2,3-triazole-4-carboxylic acid] | 112
39 | Cc1ccccc1Sc1[nH]nnc1C(=O)O [Example I-010, 5-(o-Tolylthio)-1H-1,2,3-triazole-4-carboxylic acid] | 360
40 | O=C(O)c1nn[nH]c1Oc1ccc(F)c(Cl)c1 [Example I-309, 5-(3-Chloro-4-fluorophenoxy)-1H-1,2,3-triazole-4-carboxylic acid] | 27
41 | Cc1ccc(Sc2[nH]nnc2C(=O)O)cc1 [Example I-003, 5-(p-Tolylthio)-1H-1,2,3-triazole-4-carboxylic acid] | 160
42 | O=C(O)c1nn[nH]c1Oc1cccc(C2CC2)c1 [Example I-293, 5-(3-Cyclopropylphenoxy)-1H-1,2,3-triazole-4-carboxylic acid] | 74
43 | O=C(O)c1nn[nH]c1Sc1ccccc1Cl [Example I-011, 5-((2-Chlorophenyl)thio)-1H-1,2,3-triazole-4-carboxylic acid] | 270
44 | O=C(O)c1nn[nH]c1Oc1cccc(N2CCOCC2)c1 [Example I-282, 5-(3-Morpholinophenoxy)-1H-1,2,3-triazole-4-carboxylic acid] | 539
45 | O=C(O)c1nn[nH]c1Sc1ccc(C(F)(F)F)cc1 [Example I-016, 5-((4-(Trifluoromethyl)phenyl)thio)-1H-1,2,3-triazole-4-carboxylic acid] | 820
46 | C#Cc1ccc(Oc2[nH]nnc2C(=O)O)cc1 [Example I-297, 5-(4-Ethynylphenoxy)-1H-1,2,3-triazole-4-carboxylic acid] | 4
